Experimental data: PubChem BioAssay AID1919001 (Molecular Pharmacology Branch, DTP, NCI, 2023)

System: 699152-130-R-J1-PDC complex spheroid growth
Experiment: Anticancer human tumor 699152-130-R-J1-PDC patient-derived pancreatic carcinoma cell line growth inhibition [AhR]
Conditions: for IC50: curve of first compound; for viability, T/C: stronger effect = lower value
How it was run: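 Agents were dosed in half-log steps down from roughly clinical Cmax, or from 10 microM where Cmax was unknown, alone and with AhR antagonists. Read-out: percent test/control growth of tumor spheroids containing HUVEC and MSC stromal cells.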

[1] = second compound 0.1 µM, first compound 0.00949 µM
[2] = second compound 0.1 µM, first compound 0.03 µM
[3] = second compound 0.1 µM, first compound 0.0949 µM
[4] = second compound 0.1 µM, first compound 0.3 µM
[5] = second compound 0.316 µM, first compound 0.00949 µM
[6] = second compound 0.316 µM, first compound 0.03 µM
[7] = second compound 0.316 µM, first compound 0.0949 µM
[8] = second compound 0.316 µM, first compound 0.3 µM
[9] = second compound 1 µM, first compound 0.00949 µM
[10] = second compound 1 µM, first compound 0.03 µM
[11] = second compound 1 µM, first compound 0.0949 µM
[12] = second compound 1 µM, first compound 0.3 µM
[13] = second compound 3.16 µM, first compound 0.00949 µM
[14] = second compound 3.16 µM, first compound 0.03 µM
[15] = second compound 3.16 µM, first compound 0.0949 µM
[16] = second compound 3.16 µM, first compound 0.3 µM
[17] = second compound 10 µM, first compound 0.00949 µM
[18] = second compound 10 µM, first compound 0.03 µM
[19] = second compound 10 µM, first compound 0.0949 µM
[20] = second compound 10 µM, first compound 0.3 µM
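Note: compound exposure lasted 7 days after spheroids had grown for 3 days.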

| Compound | IC50 (second compound 0.1 µM) [nM] | IC50 (second compound 0.316 µM) [nM] | IC50 (second compound 1 µM) [nM] | IC50 (second compound 3.16 µM) [nM] | IC50 (second compound 10 µM) [nM] | viability, T/C [1] [%] | viability, T/C [2] [%] | viability, T/C [3] [%] | viability, T/C [4] [%] | viability, T/C [5] [%] | viability, T/C [6] [%] | viability, T/C [7] [%] | viability, T/C [8] [%] | viability, T/C [9] [%] | viability, T/C [10] [%] | viability, T/C [11] [%] | viability, T/C [12] [%] | viability, T/C [13] [%] | viability, T/C [14] [%] | viability, T/C [15] [%] | further results |
| --- | --- | --- | --- | --- | --- | --- | --- | --- | --- | --- | --- | --- | --- | --- | --- | --- | --- | --- | --- | --- | --- |
| CCN(c1cc(-c2ccc(CN3CCOCC3)cc2)cc(C(=O)NCc2c(C)cc(C)[nH]c2=O)c1C)C1CCOCC1 + Cc1cncc(-c2nc(NCCc3c[nH]c4ccccc34)c3ncn(C(C)C)c3n2)c1 | > 3000 | > 3000 | > 3000 | > 3000 | < 9.49 | 101 | 110 | 113 | 120 | 88.9 | 94.4 | 112 | 98.9 | 121 | 116 | 116 | 131 | 110 | 106 | 114 | viability, T/C (second compound 0.1 µM, first compound 0.949 µM): 98.2%; viability, T/C (second compound 0.1 µM, first compound 3 µM): 120%; viability, T/C (second compound 0.316 µM, first compound 0.949 µM): 103%; viability, T/C (second compound 0.316 µM, first compound 3 µM): 98.7%; viability, T/C (second compound 1 µM, first compound 0.949 µM): 119%; viability, T/C (second compound 1 µM, first compound 3 µM): 112%; viability, T/C [16]: 116%; viability, T/C (second compound 3.16 µM, first compound 0.949 µM): 114%; viability, T/C (second compound 3.16 µM, first compound 3 µM): 112%; viability, T/C [17]: 28.7%; viability, T/C [18]: 30.9%; viability, T/C [19]: 28.9%; viability, T/C [20]: 23.5%; viability, T/C (second compound 10 µM, first compound 0.949 µM): 22.4%; viability, T/C (second compound 10 µM, first compound 3 µM): 11.3% |
| Nc1ncn(C2CC(O)C(CO)S2)c(=O)n1 (stereo not given) + Cc1cncc(-c2nc(NCCc3c[nH]c4ccccc34)c3ncn(C(C)C)c3n2)c1 | > 300 | > 300 | > 300 | > 300 | < 0.949 | 99.9 | 99.5 | 90.8 | 91.4 | 97 | 103 | 101 | 107 | 106 | 110 | 113 | 111 | 95.1 | 94.6 | 107 | viability, T/C (second compound 0.1 µM, first compound 0.000949 µM): 105%; viability, T/C (second compound 0.1 µM, first compound 0.003 µM): 93.8%; viability, T/C (second compound 0.316 µM, first compound 0.000949 µM): 112%; viability, T/C (second compound 0.316 µM, first compound 0.003 µM): 95.9%; viability, T/C (second compound 1 µM, first compound 0.000949 µM): 126%; viability, T/C (second compound 1 µM, first compound 0.003 µM): 110%; viability, T/C (second compound 3.16 µM, first compound 0.000949 µM): 91.6%; viability, T/C (second compound 3.16 µM, first compound 0.003 µM): 88.8%; viability, T/C [16]: 104%; viability, T/C (second compound 10 µM, first compound 0.000949 µM): 23.9%; viability, T/C (second compound 10 µM, first compound 0.003 µM): 21%; viability, T/C [17]: 22.8%; viability, T/C [18]: 22.5%; viability, T/C [19]: 19.6%; viability, T/C [20]: 20.4% |
